Reference: patent US8309745B2, “Epigallocatechin dimers or trimers having lipase inhibitory activity and/or antioxidant activity” (Suntory Holdings Limited, priority 2004, dated 2012)

Tests used:
swine pancreatic lipase = biological target: T1, swine pancreatic lipase (Sus scrofa, UniProt P00591); test: Measurement of lipase inhibitory activity (4-UMO fluorescence assay); assay type: biochemical; conditions: for lipase inhibitory activity compared with EGCG: in words; for IC50: swine pancreatic lipase, 4-UMO substrate, pH 8.0, 30-minute reaction, read-out: Lipase Inhibitory Activities of Various Polyphenols IC50
T1 construct: purchased Sigma
T1 sequence (P00591 1-450): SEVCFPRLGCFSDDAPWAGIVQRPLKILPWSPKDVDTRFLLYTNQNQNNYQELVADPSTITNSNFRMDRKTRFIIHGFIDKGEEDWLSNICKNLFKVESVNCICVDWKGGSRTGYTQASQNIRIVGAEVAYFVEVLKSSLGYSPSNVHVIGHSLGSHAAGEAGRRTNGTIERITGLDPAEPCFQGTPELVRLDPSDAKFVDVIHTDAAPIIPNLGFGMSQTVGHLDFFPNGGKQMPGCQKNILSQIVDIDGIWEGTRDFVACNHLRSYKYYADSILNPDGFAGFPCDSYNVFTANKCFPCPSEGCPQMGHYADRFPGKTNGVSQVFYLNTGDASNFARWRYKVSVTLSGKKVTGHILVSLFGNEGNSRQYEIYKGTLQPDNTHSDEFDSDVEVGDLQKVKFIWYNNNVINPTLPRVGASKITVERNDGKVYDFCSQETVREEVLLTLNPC
Source text: Lipase inhibitory activity can be measured by any one of the lipase activity assays that are described in the prior applications mentioned in the Background Art. As for inhibitory activity against pancreatic lipase, an oleic ester of fluorescent 4-methylumbelliferone may be used as a substrate to measure the fluorescence from 4-methylumbelliferone that is formed by reaction with the lipase. The amount of a sample that provides 50% inhibition of lipase activity (IC50) may be substituted to express lipase inhibitory activity in accordance with the usual method.
For lipase activity measurement, an oleic ester of fluorescent 4-methylumbelliferone (4-UMO) was used as a substrate and the fluorescence from 4-methylumbelliferone formed by enzyme reaction was measured.
The buffer used in the measurement was 13 mM tris-HCl (pH 8.0) containing 150 mM NaCl and 1.36 mM CaCl2. The substrate 4-UMO (product of Sigma-Aldrich Co.) was prepared as 0.1 M solution in DMSO and then diluted 1,000-fold with the buffer. The lipase subjected to enzyme measurement was swine pancreatic lipase (product of Sigma) that had been diluted to a concentration of 400 U/ml with the buffer.
To start the enzyme reaction, 50 μl of buffered 4-UMO solution and 25 μl of distilled water (or an aqueous solution of sample) were loaded and mixed on a 96-well microplate and 25 μl of the buffered lipase solution was then added. After 30-minute reaction, 100 μl of 0.1 M citrate buffered solution (pH 4.2) was added to quench the reaction and the fluorescence from 4-methylumbelliferone (excitation wavelength: 355 nm; fluorescence wavelength: 460 nm), which was generated by the reaction, was measured with a fluorescence plate reader (Fluoroskan Asent CF: product of Labsystems).
The inhibitory activity of the test sample was determined as its amount that would provide 50% inhibition of lipase activity (IC50 in μl) compared to the activity of the control (distilled water).
The lipase inhibitory activities of six compounds (dimers of OHBFs and their trimer), as well as epigallocatechin gallate (EGCG) were measured in accordance with Example 1 and the results are shown in Table 1.

[1] = Superoxide anion radical scavenging activity (hypoxanthine-xanthine oxidase reaction, ESR with DMPO); conditions: O2- generated by hypoxanthine-xanthine oxidase, DMPO trapping agent
Procedure: The superoxide anion radical scavenging activity was measured by the method to be described in Example 5. Briefly, O2^− was generated by means of hypoxanthine-xanthine oxidase reaction and 5,5-dimethyl-1-pyrrolin-N-oxide was used as a trapping agent to perform measurement by ESR. Measurements were conducted in the presence or absence of compounds of the present invention and the results were expressed as IC50 or the amount of a sample that provided 50% suppression of O2^− generation.
Evaluation was made of the activity for scavenging superoxide anion radicals generated by hipoxanthine-xanthine oxidase reaction, a kind of active oxygen.
After preparing (1) 2 mM hypoxanthine solution (dissolved in 0.1 M phosphate buffered solution at pH 7.4) and (2) 5.5 mM diethylenetriamine-pentaacetic acid (dissolved in 0.1 M phosphate buffered solution at pH 7.4), 5.0 ml of the solution (1), 3.5 ml of the solution (2), and 1.5 ml of 5,5-dimethyl-1-pyrrolin-N-oxide (DMPO, product of LABOTECH) were mixed to make reagent 1. A 50-μl portion of reagent 1 was put in a 1.5-ml microtube and incubated at 37° C. for 4 minutes. To the incubated reagent 1, a methanol solution of the sample was added in an amount of 20 μl and then 50 μl of xanthine oxidase (0.4 units/ml) was added, followed by stirring for 10 seconds. The reaction mixture was injected into a hematocrit tube, which was set in an ESR apparatus and sweeping in a magnetic field was started 60 seconds after addition of xanthine oxidase. The conditions of ESR measurement were as follows: Power, 4 mW; C. Field, 335.5 mT, SwWid (±), 5 mT; SwTime, 1 min; ModWid, 0.1 mT; Amp, 160; TimeC, 0.1 sec; Temperature, 20° C.
Among the ESR signals from DMPO-OOH, the signal of the lowest field strength was compared in height to the internal standard Mn^2+ signal and the ratio (S/M) was assumed to represent the amount of O2^− and the O2^− scavenging activity was calculated by the following formula: O2^− scavenging activity(%)=100−{100×(S/M in the presence of the sample)/(S/M in the absence of the sample)} Results: […]

SMILES | IC50 (swine pancreatic lipase) | IC50 [1] | lipase inhibitory activity compared with EGCG (swine pancreatic lipase)
O=C(O[C@@H]1Cc2c(O)cc(O)c(Cc3c(O)c(Cc4c(O)cc(O)c5c4O[C@H](c4cc(O)c(O)c(O)c4)[C@H](OC(=O)c4cc(O)c(O)c(O)c4)C5)c4c(c3O)C[C@@H](OC(=O)c3cc(O)c(O)c(O)c3)[C@@H](c3cc(O)c(O)c(O)c3)O4)c2O[C@@H]1c1cc(O)c(O)c(O)c1)c1cc(O)c(O)c(O)c1 [Trimer (4)] | 129 nM | 10100 nM | potent lipase inhibitory activity compared with EGCG
O=C(O[C@@H]1Cc2c(O)cc(O)c(Cc3c(O)cc(O)c4c3O[C@H](c3cc(O)c(O)c(O)c3)[C@H](OC(=O)c3cc(O)c(O)c(O)c3)C4)c2O[C@@H]1c1cc(O)c(O)c(O)c1)c1cc(O)c(O)c(O)c1 [Oolong homobisflavan A (1), oolong homobisflavan A] | 49 nM | – | –
O=C(O[C@@H]1Cc2c(cc(O)c(Cc3c(O)cc(O)c4c3O[C@H](c3cc(O)c(O)c(O)c3)[C@H](OC(=O)c3cc(O)c(O)c(O)c3)C4)c2O)O[C@@H]1c1cc(O)c(O)c(O)c1)c1cc(O)c(O)c(O)c1 [Oolong homobisflavan B (2), oolong homobisflavan B] | 108 nM | – | –
O=C(O[C@@H]1Cc2c(O)cc(O)cc2O[C@@H]1c1cc(O)c(O)c(O)c1)c1cc(O)c(O)c(O)c1 [Epigallocathechin 3-O-gallate (7), (−)-epigallocatechin-3-O-gallate, reference compound] | – | 14000 nM | –

More lines, in order of falling IC50 (swine pancreatic lipase), values ahead:

IC50 (swine pancreatic lipase) | IC50 [1] | SMILES | lipase inhibitory activity compared with EGCG (swine pancreatic lipase)
2080 nM | – | Oc1cc([C@H]2Oc3cc(O)c(Cc4c(O)cc(O)c5c4O[C@H](c4cc(O)c(O)c(O)c4)[C@H](O)C5)c(O)c3C[C@H]2O)cc(O)c1O [Didesgalloyl oolong homobisflavan B (6), didesgalloyl oolong homobisflavan B] | –
271 nM | – | O=C(O[C@@H]1Cc2c(O)cc(O)c(Cc3c(O)cc(O)c4c3O[C@H](c3cc(O)c(O)c(O)c3)[C@H](O)C4)c2O[C@@H]1c1cc(O)c(O)c(O)c1)c1cc(O)c(O)c(O)c1 [monodesgalloyl oolong homobisflavan A] | –
97 nM | 6200 nM | O=C(O[C@@H]1Cc2c(cc(O)c(Cc3c(O)cc4c(c3O)C[C@@H](OC(=O)c3cc(O)c(O)c(O)c3)[C@@H](c3cc(O)c(O)c(O)c3)O4)c2O)O[C@@H]1c1cc(O)c(O)c(O)c1)c1cc(O)c(O)c(O)c1 [Oolong homobisflavan C (3), oolong homobisflavan C] | potent lipase inhibitory activity compared with EGCG
